Measurements as given in patent US8026257B2 (Bristol-Myers Squibb Company, priority 2007, dated 2011).
pIC50: −log10 of the molar value.

Columns and labels:
[1] = background statement, literature reports; cited from earlier work
[2] = target: hSERT (Homo sapiens, UniProt P31645); experiment: SERT radioligand binding assay ([125I]RTI-55, HEK-hSERT membranes); conditions: HEK-293 hSERT membranes, 260 pM [125I]RTI-55, 1 hour at room temperature; read-out: SERT IC50
Outline: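 IC50 values derive from four-parameter fits of triplicate percent-inhibition curves, with DMSO as 0% and fluoxetine as 100%. Binding used [125I]RTI-55 at its Kd (520 pM 2× solution) and HEK-hSERT membranes (15 ug/ml 2×) in Tris/NaCl/KCl, pH 7.5, 1 hour, room temperature. Filter-bound radioactivity was counted.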

[3] = target: T1, NK-1 (Homo sapiens, UniProt P25103); experiment: NK1 radioligand binding assay ([125I]Substance P, U373 membranes); conditions: U373 cell membranes, 200 pM [125I]Substance P, 1 hour at room temperature
T1 construct: 30 ul/well of a 2×U373 membrane preparation
T1 sequence (P25103 whole entry): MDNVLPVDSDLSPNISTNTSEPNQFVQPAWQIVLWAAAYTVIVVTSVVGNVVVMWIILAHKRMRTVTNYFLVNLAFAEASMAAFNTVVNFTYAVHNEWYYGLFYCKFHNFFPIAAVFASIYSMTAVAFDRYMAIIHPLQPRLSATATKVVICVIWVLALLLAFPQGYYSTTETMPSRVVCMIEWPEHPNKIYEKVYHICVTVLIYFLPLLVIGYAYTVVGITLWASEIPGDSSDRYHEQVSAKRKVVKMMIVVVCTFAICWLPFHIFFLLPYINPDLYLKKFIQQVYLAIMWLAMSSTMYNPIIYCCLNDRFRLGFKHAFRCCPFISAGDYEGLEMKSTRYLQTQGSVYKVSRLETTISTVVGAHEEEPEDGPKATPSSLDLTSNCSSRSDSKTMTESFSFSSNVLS
Outline: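 Displacement of Kd-level [125I]Substance P (400 pM 2× stock) from U373 membranes in pH 7.5 Tris-Cl/MgCl2 buffer with protease inhibitors, 1 h, room temperature. Filtration onto GF/B, then scintillation counting. Percent inhibition, referenced to DMSO and L-733,060 wells, fitted by four-parameter equation to give IC50; triplicate plates.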

Chain of hSERT (P31645 whole entry): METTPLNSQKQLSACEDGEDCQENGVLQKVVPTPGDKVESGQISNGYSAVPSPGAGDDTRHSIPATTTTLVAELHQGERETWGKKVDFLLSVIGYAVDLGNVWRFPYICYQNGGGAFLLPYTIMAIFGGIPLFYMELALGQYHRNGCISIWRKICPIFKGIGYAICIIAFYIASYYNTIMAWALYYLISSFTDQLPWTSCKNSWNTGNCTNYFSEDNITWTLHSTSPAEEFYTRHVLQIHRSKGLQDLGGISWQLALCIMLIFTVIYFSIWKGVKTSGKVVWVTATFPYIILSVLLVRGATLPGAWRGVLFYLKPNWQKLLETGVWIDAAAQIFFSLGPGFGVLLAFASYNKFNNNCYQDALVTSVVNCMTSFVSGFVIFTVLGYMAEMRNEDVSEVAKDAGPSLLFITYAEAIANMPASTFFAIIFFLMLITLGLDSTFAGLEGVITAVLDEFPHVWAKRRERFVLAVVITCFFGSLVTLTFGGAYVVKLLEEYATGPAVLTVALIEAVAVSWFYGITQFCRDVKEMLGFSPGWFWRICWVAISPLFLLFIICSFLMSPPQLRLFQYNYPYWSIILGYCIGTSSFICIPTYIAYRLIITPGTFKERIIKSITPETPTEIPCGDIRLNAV

| SMILES | antidepressant activity [1] | pIC50 [2] | pIC50 [3] |
| --- | --- | --- | --- |
| COc1ccc(OC(F)(F)F)cc1CN[C@H]1CCCN[C@H]1c1ccccc1 [CP-122,721] | Robust antidepressant activity | – | – |
| CN1CCC(COC(c2cc(Cl)cc3cn[nH]c23)C(F)F)(c2ccc(F)cc2)CC1 (centres unmarked) [Example 113, 5-chloro-7(2,2-difluoro-1-((4-(4-fluorophenyl)-1-methylpiperidin-4-yl)methoxy)ethyl)-1H-indazole] | – | 7.00 to 11.00 | 7.00 to 11.00 |
| CCC(OCC1(c2ccc(F)cc2)CCNCC1)c1cc(Cl)cc2cn[nH]c12 (centres unmarked) [Example 114, 5-chloro-7-(1-((4-(4-fluorophenyl)piperidin-4-yl)methoxy)propyl)-1H-indazole] | – | 7.00 to 11.00 | 7.00 to 11.00 |
| CCC(OCC1(c2ccc(F)cc2)CCN(C)CC1)c1cc(Cl)cc2cn[nH]c12 (centres unmarked) [Example 115, 5-chloro-7-(1-((4-(4-fluorophenyl)-1-methylpiperidin-4-yl)methoxy)propyl)-1H-indazole] | – | 7.00 to 11.00 | 7.00 to 11.00 |
| C[C@@H](OCC1(c2ccc(F)cc2)CCN(C)CC1)c1cc(Cl)cc2c(Cl)n(CC(F)(F)F)nc12 [Example 116, (R)-3,5-dichloro-7-(1-((4-(4-fluorophenyl-1-methyl)piperidine-4-yl)methoxy)ethyl)-2-(2,2,2-trifluoroethyl)-2H-indazole] | – | 7.00 to 11.00 | 7.00 to 11.00 |
| C[C@@H](OCC1(c2ccccc2)CCN(C)CC1)c1cc(Cl)cc2c(Br)n[nH]c12 [Example 118, (R)-3-bromo-5-chloro-7-(1-((1-methyl-4-phenylpiperidin-4yl)methoxy)ethyl)-1H-indazole] | – | 7.00 to 11.00 | 7.00 to 11.00 |
| C[C@@H](OCC1(c2ccccc2)CCNCC1)c1cc(Cl)cc2c(Cl)n[nH]c12 [Example 119, (R)-3,5-dichloro-7-(1-((4-phenylpiperidin-4yl)methoxy)ethyl)-1H-indazole] | – | 7.00 to 11.00 | 7.00 to 11.00 |
| C[C@@H](OCC1(c2ccccc2)CCN(C)CC1)c1cc(Cl)cc2c(Cl)n[nH]c12 [Example 120, (R)-3,5-dichloro-7-(1-((1-methyl-4-phenylpiperidin-4yl)methoxy)ethyl)-1H-indazole] | – | 7.00 to 11.00 | 7.00 to 11.00 |
| C[C@H](OCC1(c2ccc(F)cc2)CCNCC1)c1cc(Cl)cc2c(Cl)n[nH]c12 [Example 121, (S)-3,5-dichloro-7-(1-((4-(4-fluorophenyl)piperidin-4-yl)methoxy)ethyl)-1h-indazole] | – | 7.00 to 11.00 | < 6.52 |
| C[C@H](OCC1(c2ccc(F)cc2)CCN(C)CC1)c1cc(Cl)cc2c(Cl)n[nH]c12 [Example 122, (S)-3,5-dichloro-7-(1-((4-(4-fluorophenyl)-1-methylpiperidin-4-yl)methoxy)ethyl)-1h-indazole] | – | 7.00 to 11.00 | < 6.52 |
| Cc1cn(C)c2c(C(C)OCC3(c4ccc(F)cc4)CCN(C)CC3)cc(C(F)(F)F)cc12 (centres unmarked) [Example 125, 7-(1-((4-(4-fluorophenyl)-1-methylpiperidin-4-yl)methoxy)ethyl)-1,3-dimethyl-5-(trifluoromethyl)-1H-indole] | – | 7.00 to 11.00 | 7.00 to 11.00 |
| CN1CCC(COCc2cc(Br)cc3ncn(CC4CC4)c23)(c2ccccc2)CC1 [Example 132] | – | 7.00 to 11.00 | 7.00 to 11.00 |
| CCn1cnc2c([C@@H](C)OCC3(c4ccccc4)CCN(C)CC3)cc(C(F)(F)F)cc21 [Example 138, (R)-1-ethyl-4-(1-((1-methyl-4-phenylpiperidin-4-yl)methoxy)ethyl)-6-(trifluoromethyl)-1H-benzo[d]imidazole] | – | 7.00 to 11.00 | 7.00 to 11.00 |
| C[C@@H](O[C@H]1OCCN(Cc2n[nH]c(=O)[nH]2)[C@H]1c1ccc(F)cc1)c1cc(C(F)(F)F)cc(C(F)(F)F)c1 [MK-869] | Robust antidepressant activity | – | – |
